Non-standard residues stand in square brackets, D forms with d. No end group written: not given here.
Tests used:
Assay type in all cases: cell-based
[1] = system: primary cultures of rat hippocampus neurons; assay: Neuronal exocytosis of [3H]-L-glutamate; settings: 1 mM peptide alone, 1 hour at 37° C; depolarization with 75 mM KCl and 2 mM CaCl2; FIG. 4
Procedure: To determine if the enkephalin-derived peptides inhibit the neuronal exocytosis of neurotransmitters, their activity on the release of the neurotransmitter L-glutamate from primary cultures of rat hippocampus neurons was monitored. The exocytosis of this neurotransmitter in neuronal cultures can be achieved by means of the […] depolarization of the cells. The primary cultures of rat embryo hippocampus are prepared by means of conventional methods [Blanes-Mira, C., Merino, J. M., Valera, E., Fernandez-Ballester, G., Gutierrez, L. M., Viniegra, S., Pérez-Payá, E. and Ferrer-Montiel, A. Small peptides patterned after the N-terminus domain of SNAP25 inhibit SNARE complex assembly and regulated exocytosis. J. Neurochem. 88, 124-135] and are maintained in culture for 14 days in an incubator at 37° C. and 5% CO2. The cultures are incubated with [^3H]-L-glutamine to load them with [^3H]-L-glutamate for 3 hours at 37° C. The excess [^3H]-L-glutamine is then washed and they are incubated with 1 mM of the peptides to be studied for 1 hour at 37° C. The release of [^3H]-L-glutamate is carried out by means of depolarization with 75 mM KCl and 2 mM CaCl2 buffered in physiological buffer for 10 minutes at 37° C. The culture medium is collected and the amount of [^3H]-L-glutamate is quantified in a beta radioactivity counter. The results are standardized with respect to the release of [^3H]-L-glutamate in the absence of the peptide and are corrected with respect to the baseline release in the absence of calcium. […] The incubation with the enkephalin-derived peptide defined by SEQ ID NO: 6 caused a 4% inhibition.
In order to determine if the activity of enkephalin-derived peptides is additive and/or synergistic with the exocytosis inhibiting peptide Argireline®, defined by SEQ ID NO: 5, the potency of both peptides for separately and jointly inhibiting the electrically evoked release of [^3H]-L-glutamate in the presence of Ca^2+ was compared. […]

[2] = system: neurons in primary cultures of rat dorsal root ganglia; assay: Neuronal excitability, action potentials evoked by chemical stimulus (pH 6.0), patch clamp current-clamp; settings: 1 mM peptide
Procedure: (§1) The activity of the enkephalin-derived peptide defined by SEQ ID NO: 7 (Tyr-D-Ala-Gly-Phe-Leu) on the excitability of neurons was studied in primary cultures of rat dorsal root ganglia. These neurons were extracted following widely known methods [Nicol, G. D., Lopshire, J. C. and Pafford, C. M. (1997) Tumor necrosis factor enhances the capsaicin sensitivity of rat sensory neurons. J. Neurosci. 17, 975-982]. The neurons were cultured in a DMEM medium supplemented with 10% bovine serum, 5% horse serum and 50 ng/mL NGF for 2 days and the electrical activity was followed by means of a patch clamp technique with a conventional electrophysiology equipment in the current-clamp configuration [Hille, B. (2001) Ion channels of excitable membranes. Third Ed. Sinauer Associates, Inc]. Two neuron stimulation protocols were used to determine the inhibitory effect of the enkephalin-derived peptide defined by SEQ ID NO: 7.
The neurons were first stimulated by means of a chemical stimulus such as the exposure to a buffered solution at pH 6.0. In these conditions, acid-dependent channels depolarizing the neuronal membrane are activated, triggering action potentials (FIG. 1). […] The inhibition of neuronal excitability caused by the enkephalin-derived peptide defined by SEQ ID NO: 7 is reversible as shown by the recovery of said excitability after eliminating the peptide from the extracellular medium. […]

[3] = system: neurons in primary cultures of rat dorsal root ganglia; assay: Neuronal excitability, electrically evoked action potentials (40 mV depolarizing stimulus), patch clamp current-clamp; settings: 1 mM peptide
Procedure: as §1
Secondly, the effect of the enkephalin-derived peptide defined by SEQ ID NO: 7 on electrically evoked neuronal activity was evaluated. To that end, the neurons were excited with a depolarizing electrical stimulus of 40 mV from their rest potential. As a result, the repetitive action potentials were triggered throughout the electrical stimulation time (FIG. 2). […]

Substance | inhibition of exocytosis of [3H]-L-glutamate [1] [%] | effect on action potentials evoked by exposure to acidic extracellular medium ([2]; buffered solution at pH 6.0, FIG. 1) | reversibility of the inhibition of neuronal excitability after eliminating the peptide ([2]; pH 6.0 stimulus, after washing) | reversibility of the inhibition of electrically evoked action potentials ([3]; after washing) | effect on electrically evoked action potentials ([3]; depolarizing electrical stimulus of 40 mV from rest potential, FIG. 2)
Argireline®: exocytosis inhibiting peptide, acetyl hexapeptide-8 marketed by Lipotec, residues 12 to 17 of protein SNAP-25 (Ac-EEMQRR-NH2; listed as Homo sapiens) [reference compound] | 18 | – | – | – | –
Tyr-D-Ala-Gly-Phe-Leu (Y[dA]GFL; listed as Homo sapiens) [SEQ ID NO: 7, enkephalin-derived peptide] | 12 | inhibition of the action potentials | reversible | partially reversible | decrease in the frequency and amplitude of the action potentials
Tyr-Gly-Phe-Leu (YGFL; printed: Tyr-Gly-Phe-Leu) [SEQ ID NO: 6, enkephalin-derived peptide] | 4 | – | – | – | –

Reference: US9079048B2, “Cosmetic or dermopharmaceutical composition comprising enkephalin-derived peptides for reducing and/or eliminating facial wrinkles” (Lipotec, S.A., priority 2005, dated 2015)
